Measurements: ChEMBL document CHEMBL3860057, “Design and Synthesis of Potent Quinazolines as Selective β-Glucocerebrosidase Modulators” (J Med Chem, 2016)

Experiments:
[1] = target: T1, Lysosomal acid glucosylceramidase (Homo sapiens) (UniProt P04062)
T1 sequence (whole entry): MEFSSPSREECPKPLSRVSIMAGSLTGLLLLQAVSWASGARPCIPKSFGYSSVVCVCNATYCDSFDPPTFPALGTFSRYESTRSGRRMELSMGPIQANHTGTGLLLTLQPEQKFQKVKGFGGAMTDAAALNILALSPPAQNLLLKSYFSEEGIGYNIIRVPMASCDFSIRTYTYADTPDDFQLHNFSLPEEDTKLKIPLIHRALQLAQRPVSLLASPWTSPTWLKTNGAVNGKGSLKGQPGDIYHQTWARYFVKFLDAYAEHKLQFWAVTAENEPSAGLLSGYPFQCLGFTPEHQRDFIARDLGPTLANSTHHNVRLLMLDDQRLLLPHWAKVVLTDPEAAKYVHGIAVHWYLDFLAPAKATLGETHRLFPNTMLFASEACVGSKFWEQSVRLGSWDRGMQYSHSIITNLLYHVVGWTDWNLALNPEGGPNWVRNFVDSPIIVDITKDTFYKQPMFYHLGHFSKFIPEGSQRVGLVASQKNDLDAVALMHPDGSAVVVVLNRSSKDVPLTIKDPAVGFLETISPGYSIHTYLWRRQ
Description: Binding affinity to synthetic recombinant wild type GCase enzyme velaglucerase alfa (unknown origin) assessed as thermal stabilization by measuring change in melting temperature at lower concentration at pH 5 for every 10 secs by Sypro Orange-dye based fluorescence thermal shift assay

[2] = target: T2, Lysosomal acid glucosylceramidase (Homo sapiens, UniProt P04062); assay: Inhibition of synthetic recombinant wild type GCase enzyme velaglucerase alfa (unknown origin) at pH 5.9 preincubated for 5 mins followed by addition of 4-Methylumbelliferyl beta-D-glucopyranoside as substrate measured after 30 mins by fluorescence analysis
T2 sequence (P04062 whole entry): T1 sequence (whole entry)

| ΔTm [1] [°C] | IC50 [2] [µM] | SMILES |
| --- | --- | --- |
| 11 | – | c1ccc2c(c1)CC(Nc1nc(-c3ccsc3)nc3ccccc13)C2 |
| – | 0.02 | C[C@H]1CC[C@H](Nc2nc(-c3cccnc3)nc3ccccc23)CC1 |
